Experimental data taken from patent US11628159B2, “Cell-protective compounds and their use” (ETH ZURICH, priority 2017, dated 2023).
“Also recorded” adds a separate entry of the source.

Tests used:
[1] = tested on: B6 mice with AAC; experiment: Chronic pressure overload (AAC) model of heart failure, oral treatment for 2 months; assay type: in vivo, mouse; conditions: for left ventricular ejection fraction: B6 mice, oral 2 months, Compound-1 3 mg/kg/d, Compound-4 5 mg/kg/d, untreated AAC 28.6%±3.5%, ±s.d., n=5
Experimental: A, The left ventricular ejection fraction was determined in 6 month-old male B6 mice with chronic pressure overload imposed by 3 months of AAC and oral treatment with Compound-1 (AAC+compd-1) and Compound-4 (AAC+compd-4) relative to untreated AAC controls. Treatment was started one month after AAC induction and was continued for 2 months. Only mice with heart failure (ejection fraction <34% after one month of AAC) were included in the study (±s.d., n=5/group, ***p=0.0006, **p=0.0051 vs. untreated AAC; Dunnett's multiple comparison test).
We investigated whether the new small molecule GRK2 inhibitors, Compound-1 (1-(1,3-benzodioxol-5-yl)-4-(cyclopropanecarbonyl)-3-hydroxy-2-phenyl-2H-pyrrol-5-one)) and Compound-4 (4-(1,3-benzodioxol-5-yl)pyrimidine) could retard symptoms of heart failure in a chronic pressure overload model of heart failure imposed by abdominal aortic constriction (AAC). Compound-1 (3 mg/kg/d) and Compound-4 (5 mg/kg/d) were applied orally in the AAC-induced model of heart failure. Oral treatment with Compound-1 and Compound-4 was initiated in B6 mice with symptoms of heart failure (left ventricular ejection fraction <34%) induced by four weeks of AAC.
Chronic pressure overload imposed by abdominal aortic constriction (AAC) was used as an experimental model to induce cardiac hypertrophy and signs of heart failure. Aortic constriction of the abdominal aorta was performed in tribromoethanol-anesthetized 8-12 week-old transgenic mice or non-transgenic B6 controls as described (AbdAlla S, et al., Cardiovasc. Hematological Agents Med. Chem. 9, 190-206 (2011)). The abdominal aorta was constricted above the suprarenal artery by tying a 7-0 silk suture ligature against a blunt 26-gauge needle. Age-matched controls underwent identical surgical procedure except for ligation of the aorta (sham-operated mice).

[2] = tested on: GRK2-mediated phosphorylation of Srsf1; experiment: Cardiac Srsf1 phosphorylation under basal conditions in non-transgenic B6 mice after short-term treatment; assay type: in vivo, mouse; conditions: 10 mg/kg i.p., 5 h, immunoblot, relative to vehicle
Experimental: A, The GRK2-mediated phosphorylation of Srsf1 was determined by immunoblot in cardiac lysates prepared from hearts of non-transgenic B6 mice after treatment (i.p.) for 5 h with 10 mg/kg of 1-(1,3-benzodioxol-5-yl)-4-(cyclopropane-carbonyl)-3-hydroxy-2-phenyl-2H-pyrrol-5-one (“Compound-1”), 4-(1,3-benzodioxol-5-yl)pyrimidine (“Compound-4”), 1-(1,3-benzodioxol-5-ylmethyl)-5-(4-fluorophenyl)-2-methyl-pyrrole-3-carboxamide (“Compound-2”), or (4R)-N3-(1,3-benzodioxol-5-ylmethyl)-N4-[[3-(trifluoromethyl)phenyl]-methyl]pyrrolidine-3,4-dicarboxamide (“Compound-5”) relative to vehicle-treated B6 controls (“con”). […] B, Left panel: The AAC-induced cardiac p-Srsf1 content was determined in cardiac lysates from B6 mice with AAC after treatment for 7 days with 5 mg/kg/d of 1-(1,3-benzodioxol-5-yl)-4-(cyclopropane-carbonyl)-3-hydroxy-2-phenyl-2H-pyrrol-5-one (“Compound-1”) or (4R)-N3-(1,3-benzodioxol-5-ylmethyl)-N4-[[3-(trifluoromethyl)phenyl]-methyl]pyrrolidine-3,4-dicarboxamide (“Compound-5”) relative to vehicle-treated B6 controls with AAC (“AAC-con”). […] Right and lower panels: Cardiac function parameters were determined by echocardiography in B6 mice with AAC after treatment for 7 days with “Compound-1” or “Compound-5” relative to vehicle-treated B6 controls with AAC ((±s.d.; n=5 (A) and n=3 (B); Dunnett's Multiple Comparison Test vs. con (A) or AAC-con (B)).

SMILES	cardiovascular disease-induced ageing (grey coloring of the hair) ([1]; 2 months (8 weeks) of treatment, AAC mice)	AAC-induced cardiac hypertrophy (histology) ([1]; 3 months AAC, 2 months oral treatment)	left ventricular ejection fraction ([1]; 3 months AAC)	GRK2-mediated Srsf1 phosphorylation under basal conditions in the hearts of non-transgenic B6 mice [2]
O=C(C1=C(O)C(c2ccccc2)N(c2ccc3c(c2)OCO3)C1=O)C1CC1 (stereo not drawn) [Compound-1, 1-(1,3-benzodioxol-5-yl)-4-(cyclopropane-carbonyl)-3-hydroxy-2-phenyl-2H-pyrrol-5-one]	substantially retarded	retards; also recorded: decrease	41.4±4.8%	decreased
c1cc(-c2ccc3c(c2)OCO3)ncn1 [Compound-4, 4-(1,3-benzodioxol-5-yl)pyrimidine]	–	–	38.2±3.7%	decreased
